Laboratory results: patent US12559504B2, “Benzotriazole derivative” (UBE CORPORATION, priority 2019, dated 2026)

Tests used:
[1] = target: T1, GST fusion human Keap1 (amino acid residue: 325-624) protein (Homo sapiens, UniProt Q14145); experiment: Keap1-Nrf2 binding inhibition test (fluorescence polarization); details: compound concentration of 100 nM; read-out: inhibition rate
T1 construct: GST fusion human Keap1 (amino acid residue: 325-624) protein; purchased Protein tech Ag0779
Procedure: The inhibitory activity of each test compound on the binding between Nrf2 and Keap1 was measured by the fluorescence polarization method. A solution consisting of 20 mM tris-hydrochloride pH7.5 (NIPPON GENE CO., LTD., REF: 318-90225), 150 mM NaCl [FUJIFILM Wako Pure Chemical. Corporation, REF: 191-01665], 0.05% Tween 20 (BioRAD, REF: 161-0781), and 5 mM DTT (FUJIFILM Wako Pure Chemical Corporation, REF: 049-08972) was used as a buffer solution. To a test compound solution (70 μL) adjusted to each concentration with 10% DMSO (FUJIFILM Wako Pure Chemical Corporation, REF: 043-07216) was added a buffer solution (350 μL) comprising 6 nM FITC-labeled Nrf2 peptide (FITC-Ahx-LDEETGEFL-NH2, Invitrogen) and 0.2 mg/mL of BSA (FUJIFILM Wako Pure Chemical Corporation, REF: 017-22231). Each 120 μL of the resulting mixture was dispensed into a black 96 well plate, and a buffer solution (80 μL) comprising 2.5 nM GST fusion human Keap1 (amino acid residue: 325-624) protein (Protein tech, REF: Ag0779) was added thereto. A Keap1-free buffer solution was added to some wells to prepare negative controls. Meanwhile, compound-free wells were used as positive controls. The plate was incubated at room temperature for 30 minutes, and each fluorescence polarization at excitation wavelength of 482 nm and fluorescence wavelength of 530 nm was measured by using a plate reader Clariostar (BMG Labtech). The fluorescence polarization of the negative control was set to be 100% inhibition, fluorescence polarization of the positive control was set to be 0% inhibition, and the inhibition rate of each test compound at 100 nM was calculated by using the following equation. Inhibition rate (%)=100−((Fluorescence polarization when test compound was added−Fluorescence polarization of negative control)/(Fluorescence polarization of positive control−Fluorescence polarization of negative control))×100

NQO1 [2] = experiment: NQO1 expression induction test in mouse kidney (single administration); assay type: in vivo; details: Mus musculus, po, 6 h, BALB/c mouse kidney, 6 hours after administration, ratio to control group
Procedure: Each test compound solution for administration was prepared by dissolving or suspending each test compound into a 0.5 w/v % aqueous solution of methylcellulose (0.5% MC) (manufactured by Wako Pure Chemical Industries, Ltd.).
Each prepared test compound was orally administered to a BALB/c mouse (female, provided by Charles River Laboratories Japan, Inc.). Non-treated group was used as a control group. After 6 hours from the administration, each mouse was anesthetized with isoflurane, and euthanized with bloodletting by incising a lower aorta. Immediately, the left kidney was excised, cut into small pieces, and then the cut kidney pieces were transferred to RNA later (Thermo Fisher Scientific).
Then, mRNA was extracted from the collected kidney pieces by using NucleoSpin (registered trademark) RNA Kit (Takara Bio Inc.), each concentration was quantified by FlexStation3 (Molecular Devices), and then the concentration was adjusted to a constant concentration. A reverse transcription synthesis of cDNA was carried out from the mRNA with the constant concentration by using PrimeScript™ RT reagent Kit with gDNA Eraser and PCR Thermal Cycler (Takara Bio Inc.). Then, in addition to the resulting cDNA, SYBR (registered trademark) Premix Ex Taq™ II and NQO1, GAPDH primer (Takara Bio Inc.) were used to carry out Real-time PCR by PCR Thermal Cycler Dice Real time (Takara Bio Inc.), and the NQO1 expression was quantified by using the GAPDH expression as the reference.
In order to evaluate the NQO1 expression induction in each group, the NQO1 expression induction ratio was calculated by using the following equation. (NQO1 expression induction ratio)=(Average NQO1 expression in test compound administered group)[…](Average NQO1 expression in control group)

[3] = Metabolism test using human liver microsome fractions; assay type: in vitro ADME; details: human liver microsomes, test compound 10 μmol/L, NADPH and UDP-glucuronic acid, 37° C.
Procedure: A reaction composition solution (comprising NADPH Regenerating System, Solution A (manufactured by Corning Inc., REF. 451220) (50 μL), NADPH Regenerating System, Solution B (manufactured by Corning Inc., REF. 451200) (10 μL), 250 mM UDP-glucuronic acid (40 μL), UGT Reaction Mix Solution B (manufactured by Corning Inc., REF. 451320) (200 μL), and distilled water (640 μL)) in which human liver microsomes (manufactured by Xenotech, Cat. No. H610) or monkey liver microsomes (manufactured by Xenotech, Cat. No. P2000) (corresponding to 1 mg of protein) were suspended was prepared. After the solution was incubated at 37° C. for 5 minutes, each test compound dissolved into DMSO (manufactured by FUJIFILM Wako Pure Chemical Corporation, Code No. 043-07216) was added to the solution so that the final concentration was set to be 10 μmol/L, and a reaction was initiated. After 0, 5, 10, 15, 20, and 30 minute(s) from the initiation of the metabolism reaction, 100 μL of the reaction solution was taken out of the reaction system, and added to 200 μL of acetonitrile to stop the reaction. After the reaction was completed, the reaction solution was subjected to a work-up such as deproteinization, and then subjected to an UV-HPLC analysis to carry out the following analysis.
The peak area of each test compound was calculated by LabSolution software (Shimadzu Corporation), and the residual ratio (%) at each culture time of test material was calculated by the following equation. Residual ratio (%)=Peak area at each culture time[…]Peak area at 0 (initial time)
Next, the residual amount (nmol/mg/mL) at each culture time of test material was calculated by the following equation. Residual amount (nmol/mg/mL)=Initial concentration of reaction solution (10 nmol/mg/mL)×residual ratio÷100
Finally, a graph in which the reaction time was plotted at horizontal axis and the residual amount was plotted at longitudinal axis was prepared on Excel, and the inclination was calculated as the elimination rate (pmol/min/mg-P) within the time range in which the graph was deemed linear.

NQO1 [4] = experiment: NQO1 enzyme induction test (in vitro) in Hepa1c1c7 cells; assay type: cell-based; details: Mus musculus, Hepa-1c1c7, 48 h, concentration to elevate the NQO1 activity by 1.5 times, about 48 hours, read-out: EC150
Procedure: Each NQO1 assay was carried out by modifying a known method (Anal Biochem 1998; 169: 328-, Methods Enzymol 2004; 382: 243-). Hepa1c1c7 cells (mouse hepatocyte line manufacture by DS Pharma Biomedical Co., Ltd., REF. No. 95090613) were cultured (5% CO2, 37° C.). The cells were cultured in MEMα (manufactured by FUJIFILM Wako Pure Chemical Corporation, REF. 135-15175) medium comprising 10% FBS (manufactured by GIBCO, REF. 10082) and […]/streptomycin/amphotericin B (manufactured by GIBCO, REF. 15240), and dispensed into a 96 well plate (manufactured by Costar, REF. 3610) at 2.0×10^3 cells/well. On the next day, test compound (final concentration of […]: 0.1%) dissolved into DMSO (manufactured by FUJIFILM Wako Pure Chemical Corporation, REF. 043-07216) was added to each well, and the plate was further cultured for about 48 hours.
A cell lysate manufactured by Cell signaling Technology, Inc. (REF. 9803) with the addition of a Protease Inhibitor manufactured by Roche Diagnostics K.K. (REF. 11-873580001) was used. A reaction solution (which is a solution comprising trishydrochloric acid (25 mM), albumin […], Tween-20 (0.01%), glucose-6-phosphate dehydrogenase (2 U/mL), flavin-adenine dinucleotide (5 μM), glucose-6-phosphate (1 μM), nicotinamide adenine dinucleotide phosphate (30 μM), 3-(4,5-dimethyl-2-thiazolyl)-2,5-diphenyltetrazolium bromide (MTT) (0.03%), and menadione (50 μM)), and a stop solution (which is a solution comprising dicumarol (0.3 mM) and potassium dihydrogen phosphate (5 mM), pH 7.4) were prepared. After the medium was removed, cell lysate (50 μL) was added thereto, and the resulting mixture was shaken at room temperature for 20 minutes. The reaction solution (200 μL) was added thereto, and the resulting mixture was left to stand at room temperature for 5 minutes. The stop solution (50 μL) was added thereto, and absorbance at 540 nm (reference 750 nm) was measured.
Cell number was measured by Cell Titer Glo assay (manufactured by Promega Corporation, REF. G9242) by using another plate prepared according to the same conditions as those described above, and correction of absorbance was carried out. The test result was analyzed by Excel, and the EC150 value which is the concentration to elevate the NQO1 activity by 1.5 times was calculated.

T1 sequence (Q14145 325-624): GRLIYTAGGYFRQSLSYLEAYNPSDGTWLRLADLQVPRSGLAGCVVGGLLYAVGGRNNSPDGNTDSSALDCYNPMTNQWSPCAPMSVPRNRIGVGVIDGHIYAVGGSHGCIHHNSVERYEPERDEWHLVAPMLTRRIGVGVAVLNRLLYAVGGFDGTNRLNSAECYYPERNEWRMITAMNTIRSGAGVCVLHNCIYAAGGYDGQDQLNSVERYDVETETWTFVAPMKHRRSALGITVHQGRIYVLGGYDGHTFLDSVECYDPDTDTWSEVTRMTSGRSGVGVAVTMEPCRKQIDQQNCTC

| inhibition at 0.1 µM [1] [%] | SMILES | fold induction at 10 mg/kg (NQO1 [2]) | Human metabolic rate [3] | EC (1.5-fold NQO1 activity) (NQO1 [4]) [µM] | fold induction at 20 mg/kg (NQO1 [2]; Dose 20 mg/kg) |
| --- | --- | --- | --- | --- | --- |
| ≥ 50 | CC[C@@H]1CN(Cc2cc(C(c3ccc4c(nnn4C)c3C)C(C)(C)C(=O)O)ccc2C)Cc2cc3ncccc3cc2O1 (single isomer, unassigned) [Example 41] | > 6 | A (metabolic rate<100 pmol/min/mg protein) | – | – |
| ≥ 50 | CC[C@@H]1CN(Cc2cc(C(c3ccc4c(nnn4C)c3C)C(C)(C)C(=O)O)ccc2C)Cc2ncc3ccccc3c2O1 (single isomer, unassigned) [Example 45] | > 6 | A (metabolic rate<100 pmol/min/mg protein) | – | – |
| ≥ 50 | CC[C@@H]1CN(Cc2cc(C(c3ccc4c(nnn4C)c3C)C(C)(C)C(=O)O)ccc2C)Cc2cnc3ccccc3c2O1 (single isomer, unassigned) [Example 47] | > 6 | B (100≤metabolic rate<150 pmol/min/mg protein) | – | – |
| ≥ 50 | CC[C@H]1CN(Cc2cc(C(c3ccc4c(nnn4C)c3C)C(C)(C)C(=O)O)ccc2C)Cc2ncc3ccccc3c2O1 (single isomer, unassigned) [Example 89-(b)] | 3 to 6 | E (metabolic rate≥250 pmol/min/mg protein) | – | – |

Second part, the molecule before the results:

| SMILES | inhibition at 0.1 µM [1] [%] | fold induction at 10 mg/kg (NQO1 [2]) | Human metabolic rate [3] | EC (1.5-fold NQO1 activity) (NQO1 [4]) [µM] | fold induction at 20 mg/kg (NQO1 [2]; Dose 20 mg/kg) |
| --- | --- | --- | --- | --- | --- |
| CC[C@@H]1CN(Cc2cc(C(c3ccc4c(nnn4C)c3C)C(C)(C)C(=O)O)ccc2C)Cc2cc3cccnc3cc2O1 (single isomer, unassigned) [Example 39] | ≥ 50 | 3 to 6 | A (metabolic rate<100 pmol/min/mg protein) | – | – |
| CC[C@@H]1CN(Cc2cc(C(c3ccc4c(nnn4C)c3C)C(C)(C)C(=O)O)ccc2C)Cc2c(ccc3cn[nH]c23)O1 (single isomer, unassigned) [Example 43] | ≥ 50 | > 6 | A (metabolic rate<100 pmol/min/mg protein) | – | – |
| Cc1ccc(C(c2ccc3c(nnn3C)c2C)C(C)(C)C(=O)O)cc1CN1Cc2cc3ncccc3cc2OC2(CC2)C1 (single isomer, unassigned) [Example 85, 3-(3-((3′H-spiro[cyclopropane-1,2′-[1,4]oxazepino[7,6-g]quinoline]-4′(5′H)-yl)methyl)-4-methylphenyl)-3-(1,4-dimethyl-1H-benzo[d][1,2,3]triazol-5-yl)-2,2-dimethylpropanoic Acid] | ≥ 50 | – | A (metabolic rate<100 pmol/min/mg protein) | 0.0005 to 0.005 | – |
| CC[C@@H]1CN(Cc2cc(C(c3ccc4c(nnn4C)c3C)C3(C(=O)O)CCC3)ccc2C)Cc2cc3ncccc3cc2O1 (single isomer, unassigned) [Example 87] | ≥ 50 | – | A (metabolic rate<100 pmol/min/mg protein) | 0.0005 to 0.005 | – |
| CC[C@@H]1CN(Cc2cc(C(c3ccc4c(nnn4C)c3C)C(C)(C)C(=O)O)ccc2C)Cc2c(ccc3c2CCCC3)O1 (stereo partly drawn) [Example 5-(b), 3-(1,4-dimethyl-1H-benzo[d][1,2,3)triazol-5-yl)-3-(3-(((R)-4-ethyl-3,4,8,9,10,11-hexahydronaphtho(1,2-f) (1,4]oxazepin-2(1H)-yl)methyl)-4-methylphenyl)-2,2-dimethylpropanoic Acid] | – | – | – | 0.05 to 0.5 | – |
| CCCC1CN(Cc2cc(C(c3ccc4c(nnn4C)c3C)C(C)(C)C(=O)O)ccc2C)Cc2cc3ncccc3cc2O1 (stereo not shown) [Example 77-(b), 3-(1,4-dimethyl-1H-benzo[d][1,2,3]triazol-5-yl)-2,2-dimethyl-3-(4-methyl-3-((2-propyl-2,3-dihydro-[1,4]oxazepino[7,6-g]quinolin-4 (5H)-yl)methyl)phenyl)propanoic Acid] | ≥ 50 | – | B (100≤metabolic rate<150 pmol/min/mg protein) | – | > 6 |
